Experimental data from article PMC8151276, “An Integrated Approach toward NanoBRET Tracers for Analysis of GPCR Ligand Engagement” (Molecules, 2021).

Columns and labels:
Type in all cases: binding
[1] = biological target: T1, OPRL1 (Homo sapiens, UniProt P41146); test: NanoBRET screen HiBiT-OPRL1 in HEK293; details: OPRL1
T1 construct: purchased Promega (in-house HiBiT-GPCR construct library, NanoBRET)
Experimental: (§1) Each tracer candidate was screened across the entire library of HiBiT-GPCR constructs using NanoBRET as the detection modality. As depicted in Figure 4A, the specificity of interactions was evaluated through decrease in BRET due to competitive displacement of a bound tracer by excess parental compound. Each tracer was analyzed for binding to each HiBiT-GPCR fusion in the absence and in the presence of competing parental compound. Briefly, HEK293 cells were transfected with HiBiT-GPCR constructs diluted into promoterless DNA to reduce expression and maximize translocation to the cell surface. Each tracer candidate was then screened at concentrations of 1 μM and 0.1 μM across cells expressing these fusions. Cells were treated for 1.5 h with tracer either alone or in the presence of 20 μM competing parental compound (i.e., control). BRET was measured upon addition of purified LgBiT and subsequent complementation with HiBiT genetically fused to a GPCR. The specificity of interactions was assessed through a decrease in BRET signal due to competitive displacement of the bound tracer. To further gauge the robustness of these interactions, the fold response over the control (i.e., BRETtracer/BRETcontrol) was calculated. We chose a 1.5-fold response, which translates to ≥7-fold signal over noise as the minimal threshold required to score an interaction as positive. […]. Below we highlight the screening results obtained for our exemplary fluorescent tracers based on Clozapine, Amitriptyline and AZD1283.
(§2) HiBiT-GPCR DNA constructs were diluted in 10 mM Tris pH 8 to a final concentration of 0.01 μg/μL, arrayed in 96-well plates and stored at −20 °C. For transfection, HEK293 cells were suspended in Opti-MEM (without phenol red) supplemented with 2% fetal bovine serum (Seradigm) and 100 units/mL penicillin–streptomycin (Gibco) at a final concentration of 220,000 cells/mL and dispensed into white 96-well plates at 90 μL/well. Subsequent transfections and screens were carried using an Agilent Bravo Automated Liquid Handling Platform. First, the 96-well HiBiT DNA arrays were diluted 25-fold in Opti-MEM (without serum or phenol red) to a final concentration of 0.0004 μg/μL and 20 μL of the diluted DNAs were transferred into new 96-well plates. Next, promoterless carrier DNA (1 μg/μL) was diluted 25-fold (0.04 μg/μL) and then dispensed into the diluted arrays at 20 μL/well. Following brief mixing, Viafect transfection reagent (Promega) diluted 16-fold into Opti-MEM was dispensed into the plates at 40 μL/well. After mixing by pipetting, plates were incubated for 10 min on the pipetting station deck. The DNA-transfection reagent complexes were then added to plates containing cells. To facilitate the screen, 10 μL of DNA-transfection reagent complexes were added in duplicates to the top 4 and bottom 4 rows, resulting in two identical 48-well arrays per plate. Plates with transfected cells were incubated for 18–20 h at 37 °C/5% CO2. A screen of each tracer across the entire library using two different concentrations requires duplicate plates of transfected cells. Depending on the number of tracers being screened, transfections can be scaled up using the same ratios. The next day, for each tracer, four 20× screening solutions in tracer dilution buffer (Promega) were prepared: two duplicates at final concentration of 20 μM and two duplicates at a final concentration of 2 μM. A competing unmodified compound was added to one of each duplicate at a final concentration of 400 μM. The four resulting solutions were diluted 4-fold in Opti-MEM without serum or phenol red to generate 5× solutions (5 µM and 0.5 µM tracer +/− 100 μM competing compound). To screen the library, a BioTek MultiFlo FX liquid dispenser was used to dispense 22.5 µL of tracer solution to the top 4 rows and 22.5 µL tracer + competing compound solution to the 4 bottom rows. Plates were briefly mixed on an orbital shaker and incubated for 1.5 h at room temperature. […]

[2] = biological target: T2, HTR1D (Homo sapiens, UniProt P28221); test: NanoBRET screen HiBiT-HTR1D in HEK293; details: HTR1D
T2 construct: purchased Promega (in-house HiBiT-GPCR construct library, NanoBRET)
T2 sequence (P28221 whole entry): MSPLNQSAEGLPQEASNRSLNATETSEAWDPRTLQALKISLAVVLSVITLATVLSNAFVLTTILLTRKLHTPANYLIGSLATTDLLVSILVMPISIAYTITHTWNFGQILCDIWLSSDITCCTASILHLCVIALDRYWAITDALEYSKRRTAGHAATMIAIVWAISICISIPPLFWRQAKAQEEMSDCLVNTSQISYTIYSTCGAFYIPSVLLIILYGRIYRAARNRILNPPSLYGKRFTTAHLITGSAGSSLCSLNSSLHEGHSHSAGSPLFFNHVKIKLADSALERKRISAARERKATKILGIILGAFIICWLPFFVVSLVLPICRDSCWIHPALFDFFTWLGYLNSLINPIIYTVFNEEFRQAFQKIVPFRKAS
Experimental: as §1, §2

[3] = biological target: T3, CXCR4 (Homo sapiens, UniProt P61073); test: NanoBRET screen HiBiT-CXCR4 in HEK293; details: CXCR4
T3 construct: purchased Promega (in-house HiBiT-GPCR construct library, NanoBRET)
T3 sequence (P61073 whole entry): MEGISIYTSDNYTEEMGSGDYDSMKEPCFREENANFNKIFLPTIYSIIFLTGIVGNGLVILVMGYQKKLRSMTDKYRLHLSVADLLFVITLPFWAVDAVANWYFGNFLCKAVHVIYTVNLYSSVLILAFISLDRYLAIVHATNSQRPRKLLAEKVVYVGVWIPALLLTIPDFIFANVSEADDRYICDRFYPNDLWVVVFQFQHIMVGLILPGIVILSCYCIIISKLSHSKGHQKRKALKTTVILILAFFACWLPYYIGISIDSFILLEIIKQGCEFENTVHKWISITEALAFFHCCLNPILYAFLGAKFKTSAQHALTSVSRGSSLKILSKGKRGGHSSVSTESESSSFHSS
Experimental: as §1, §2

[4] = biological target: T4, P2RY13 (Homo sapiens, UniProt Q9BPV8); test: NanoBRET screen HiBiT-P2RY13 in HEK293; details: P2RY13
T4 construct: purchased Promega (in-house HiBiT-GPCR construct library, NanoBRET)
T4 sequence (Q9BPV8 1-354): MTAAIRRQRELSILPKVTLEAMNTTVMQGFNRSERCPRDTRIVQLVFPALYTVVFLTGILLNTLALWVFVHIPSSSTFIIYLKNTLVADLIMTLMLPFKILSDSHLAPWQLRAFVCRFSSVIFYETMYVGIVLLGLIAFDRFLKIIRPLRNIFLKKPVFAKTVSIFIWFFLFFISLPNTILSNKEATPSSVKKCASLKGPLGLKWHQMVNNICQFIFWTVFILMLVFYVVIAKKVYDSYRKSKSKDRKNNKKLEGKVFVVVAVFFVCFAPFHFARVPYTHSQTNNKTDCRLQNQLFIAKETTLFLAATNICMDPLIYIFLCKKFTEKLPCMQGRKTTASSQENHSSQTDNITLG
Experimental: as §1, §2

[5] = biological target: T5, PTGDR2 (Homo sapiens, UniProt Q9Y5Y4); test: NanoBRET screen HiBiT-PTGDR2 in HEK293; details: PTGDR2
T5 construct: purchased Promega (in-house HiBiT-GPCR construct library, NanoBRET)
T5 sequence (Q9Y5Y4 1-395): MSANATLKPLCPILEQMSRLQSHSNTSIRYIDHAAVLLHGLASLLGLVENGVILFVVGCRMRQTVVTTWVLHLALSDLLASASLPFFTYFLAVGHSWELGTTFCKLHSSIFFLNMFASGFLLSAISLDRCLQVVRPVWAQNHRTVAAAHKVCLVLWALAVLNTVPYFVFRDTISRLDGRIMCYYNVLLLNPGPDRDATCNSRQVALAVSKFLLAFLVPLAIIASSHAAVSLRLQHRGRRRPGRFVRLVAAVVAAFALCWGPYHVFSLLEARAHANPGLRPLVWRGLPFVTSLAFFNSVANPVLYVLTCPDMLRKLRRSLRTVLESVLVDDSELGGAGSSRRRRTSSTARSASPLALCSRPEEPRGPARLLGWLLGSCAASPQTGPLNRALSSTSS
Experimental: as §1, §2

[6] = biological target: T6, GRM2 (Homo sapiens, UniProt Q14416); test: NanoBRET screen HiBiT-GRM2 in HEK293; details: GRM2
T6 construct: purchased Promega (in-house HiBiT-GPCR construct library, NanoBRET)
T6 sequence (Q14416 19-872): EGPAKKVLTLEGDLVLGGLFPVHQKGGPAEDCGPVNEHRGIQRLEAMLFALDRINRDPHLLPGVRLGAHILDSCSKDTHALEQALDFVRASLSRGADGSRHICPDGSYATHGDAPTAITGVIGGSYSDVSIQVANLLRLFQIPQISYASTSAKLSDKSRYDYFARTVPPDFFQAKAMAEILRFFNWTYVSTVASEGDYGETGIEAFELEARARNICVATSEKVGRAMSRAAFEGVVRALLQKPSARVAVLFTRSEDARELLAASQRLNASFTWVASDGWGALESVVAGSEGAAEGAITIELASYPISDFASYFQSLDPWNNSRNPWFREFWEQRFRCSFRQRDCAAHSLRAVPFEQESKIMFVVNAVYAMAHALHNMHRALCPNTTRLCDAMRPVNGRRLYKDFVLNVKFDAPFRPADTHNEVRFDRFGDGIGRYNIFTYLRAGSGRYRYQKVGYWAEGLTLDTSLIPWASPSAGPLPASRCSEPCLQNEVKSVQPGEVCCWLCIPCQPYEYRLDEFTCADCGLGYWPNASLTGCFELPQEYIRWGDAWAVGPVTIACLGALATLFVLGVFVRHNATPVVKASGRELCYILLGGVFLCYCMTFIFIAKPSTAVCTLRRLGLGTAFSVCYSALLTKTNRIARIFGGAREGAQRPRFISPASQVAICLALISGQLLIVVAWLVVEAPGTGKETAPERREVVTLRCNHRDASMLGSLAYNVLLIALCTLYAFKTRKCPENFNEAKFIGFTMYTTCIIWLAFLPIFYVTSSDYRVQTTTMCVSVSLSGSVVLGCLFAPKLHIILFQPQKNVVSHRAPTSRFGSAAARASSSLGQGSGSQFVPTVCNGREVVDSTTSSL
Experimental: as §1, §2

[7] = biological target: T7, SSTR1 (Homo sapiens, UniProt P30872); test: NanoBRET screen HiBiT-SSTR1 in HEK293; details: SSTR1
T7 construct: purchased Promega (in-house HiBiT-GPCR construct library, NanoBRET)
T7 sequence (P30872 whole entry): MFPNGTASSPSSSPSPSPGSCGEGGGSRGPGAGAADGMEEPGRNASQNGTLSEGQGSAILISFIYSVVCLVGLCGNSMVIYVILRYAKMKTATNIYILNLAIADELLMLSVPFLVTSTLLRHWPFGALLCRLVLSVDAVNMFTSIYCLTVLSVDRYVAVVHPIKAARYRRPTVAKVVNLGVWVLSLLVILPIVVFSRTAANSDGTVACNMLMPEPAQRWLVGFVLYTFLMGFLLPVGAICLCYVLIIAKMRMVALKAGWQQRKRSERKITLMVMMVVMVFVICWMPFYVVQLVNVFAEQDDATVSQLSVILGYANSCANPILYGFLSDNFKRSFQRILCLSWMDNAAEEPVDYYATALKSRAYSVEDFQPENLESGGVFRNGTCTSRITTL
Experimental: as §1, §2

[8] = biological target: T8, RXFP4 (Homo sapiens, UniProt Q8TDU9); test: NanoBRET screen HiBiT-RXFP4 in HEK293; details: RXFP4
T8 construct: purchased Promega (in-house HiBiT-GPCR construct library, NanoBRET)
T8 sequence (Q8TDU9 whole entry): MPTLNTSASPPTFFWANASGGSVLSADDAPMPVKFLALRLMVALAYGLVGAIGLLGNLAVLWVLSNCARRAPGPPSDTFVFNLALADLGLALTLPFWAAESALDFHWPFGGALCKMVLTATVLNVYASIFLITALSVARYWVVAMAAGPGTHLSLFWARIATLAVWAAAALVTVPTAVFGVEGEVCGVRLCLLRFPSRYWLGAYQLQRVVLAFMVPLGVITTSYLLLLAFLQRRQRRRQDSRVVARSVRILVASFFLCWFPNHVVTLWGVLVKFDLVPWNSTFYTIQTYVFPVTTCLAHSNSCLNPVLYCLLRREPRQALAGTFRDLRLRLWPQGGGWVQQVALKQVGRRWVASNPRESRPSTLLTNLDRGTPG
Experimental: as §1, §2

T1 sequence (P41146 whole entry): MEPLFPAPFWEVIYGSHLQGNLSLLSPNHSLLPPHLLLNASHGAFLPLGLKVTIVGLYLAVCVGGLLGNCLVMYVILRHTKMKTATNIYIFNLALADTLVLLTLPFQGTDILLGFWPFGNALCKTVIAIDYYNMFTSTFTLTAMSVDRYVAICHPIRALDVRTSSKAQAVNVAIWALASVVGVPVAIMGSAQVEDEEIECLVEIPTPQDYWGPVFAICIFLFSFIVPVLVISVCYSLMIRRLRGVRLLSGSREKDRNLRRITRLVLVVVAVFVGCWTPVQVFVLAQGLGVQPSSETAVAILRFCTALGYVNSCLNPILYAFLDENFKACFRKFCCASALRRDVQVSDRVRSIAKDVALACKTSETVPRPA

Row | SMILES | NanoBRET Fold Response ([1]; 0.1μM tracer) | NanoBRET Fold Response ([1]; 1μM tracer) | NanoBRET Fold Response ([2]; 0.1μM tracer) | NanoBRET Fold Response ([2]; 1μM tracer) | NanoBRET Fold Response ([3]; 0.1μM tracer) | NanoBRET Fold Response ([3]; 1μM tracer) | NanoBRET Fold Response ([4]; 0.1μM tracer) | NanoBRET Fold Response ([4]; 1μM tracer) | NanoBRET Fold Response ([5]; 0.1μM tracer) | NanoBRET Fold Response ([5]; 1μM tracer) | NanoBRET Fold Response ([6]; 0.1μM tracer) | NanoBRET Fold Response ([6]; 1μM tracer) | NanoBRET Fold Response ([7]; 0.1μM tracer) | NanoBRET Fold Response ([7]; 1μM tracer) | NanoBRET Fold Response ([8]; 0.1μM tracer) | NanoBRET Fold Response ([8]; 1μM tracer) | NanoBRET Fold Response ([1]; tracer 0.1μM) | NanoBRET Fold Response ([2]; tracer 0.1μM) | NanoBRET Fold Response ([2]; tracer 1μM) | NanoBRET Fold Response ([3]; tracer 0.1μM) | further results
1 | O=C(CCOCCOCCOCCOCCNC(=O)CCc1ccc2n1[B-](F)(F)[N+]1=C(c3ccc[nH]3)C=CC1=C2)NCCCN1CCN(C2=Nc3cc(Cl)ccc3Nc3ccccc32)CC1 [Clozapine-a-2-NB590] | 0.99 | 1.05 | 1.21 | 1.67 | 1.04 | 0.85 | 1.06 | 0.94 | 1.01 | 1.00 | 1.03 | 1.01 | 0.96 | 1.00 | 1.10 | 1.10 | – | – | – | – | –
2 | CN1CCN(C2=Nc3cc(Cl)ccc3Nc3ccc(CNC(=O)CCOCCOCCOCCOCCNC(=O)CCc4ccc5n4[B-](F)(F)[N+]4=C(c6ccc[nH]6)C=CC4=C5)cc32)CC1 [Clozapine-b-2-NB590] | 1.00 | 1.01 | 1.08 | 1.48 | 1.03 | 1.07 | 1.02 | 0.99 | 1.01 | 1.02 | 1.01 | 1.04 | 1.00 | 1.09 | 0.97 | 1.01 | – | – | – | – | –
3 | CN1CCN(C2=Nc3cc(Cl)ccc3N(CC(=O)NCCOCCOCCOCCOCCNC(=O)CCc3ccc4n3[B-](F)(F)[N+]3=C(c5ccc[nH]5)C=CC3=C4)c3ccccc32)CC1 [Clozapine-c-2-NB590] | 0.98 | 0.99 | 1.00 | 1.00 | 1.04 | 0.97 | 0.99 | 0.99 | 0.96 | 1.02 | 0.97 | 1.00 | 0.98 | 1.02 | 0.96 | 1.04 | – | – | – | – | –
4 | O=C(CCOCCOCCOCCOCCNC(=O)CCc1ccc2n1[B-](F)(F)[N+]1=C(c3ccc[nH]3)C=CC1=C2)NCCCN1CCN(C2=Nc3ccccc3Oc3ccc(Cl)cc32)CC1 [Loxapine-a-2-NB590] | – | – | – | – | – | – | – | – | – | – | – | – | – | – | – | – | 1.00 | 1.35 | 1.74 | 1.03 | NanoBRET Fold Response ([1]; tracer 1μM): 0.89; NanoBRET Fold Response ([3]; tracer 1μM): 1.03; NanoBRET Fold Response ([4]; tracer 0.1μM): 0.92; NanoBRET Fold Response ([4]; tracer 1μM): 0.96; NanoBRET Fold Response ([5]; tracer 0.1μM): 1.06; NanoBRET Fold Response ([5]; tracer 1μM): 1.04; NanoBRET Fold Response ([6]; tracer 0.1μM): 1.00; NanoBRET Fold Response ([6]; tracer 1μM): 1.25; NanoBRET Fold Response ([7]; tracer 0.1μM): 1.06; NanoBRET Fold Response ([7]; tracer 1μM): 1.30; NanoBRET Fold Response ([8]; tracer 0.1μM): 1.01; NanoBRET Fold Response ([8]; tracer 1μM): 1.21
5 | COc1ccccc1N1CCN(CCCCN2C(=O)c3ccc(CNC(=O)CCOCCOCCOCCOCCNC(=O)CCc4ccc5n4[B-](F)(F)[N+]4=C(c6ccc[nH]6)C=CC4=C5)cc3C2=O)CC1 [NAN-190-2-NB590] | – | – | – | – | – | – | – | – | – | – | – | – | – | – | – | – | 0.97 | 1.35 | 1.41 | 1.00 | NanoBRET Fold Response ([3]; tracer 1μM): 1.03; NanoBRET Fold Response ([4]; tracer 0.1μM): 0.97; NanoBRET Fold Response ([4]; tracer 1μM): 1.04; NanoBRET Fold Response ([5]; tracer 1μM): 1.02; NanoBRET Fold Response ([6]; tracer 0.1μM): 0.26; NanoBRET Fold Response ([6]; tracer 1μM): 1.00; NanoBRET Fold Response ([7]; tracer 0.1μM): 0.94; NanoBRET Fold Response ([7]; tracer 1μM): 1.08; NanoBRET Fold Response ([8]; tracer 1μM): 0.97
